From US11273165B2, “Applications for estradiol in preparing anti-small cell lung cancer and/or ovarian cancer and/or osteosarcoma products” (SHANGHAI JIAO TONG UNIVERSITY, priority 2015, dated 2022)
pEC50, pIC50: −log10 of the molar value.

Columns and labels:
Format in all cases: cell-based
[1] = tested on: NCI-H810 human hepatoma cells; test: CellTiter-Glo luminescent cell viability assay, NCI-H810 human hepatoma cells; details: 72 hours
Experimental: (§1) In example 1, CELLTITER-GLO was used to test estradiol against small-cell lung cancer and/or ovarian cancer and/or osteosarcoma epithelial cell carcinoma 1. Cell plating • a) The complete medium required for each cell was prepared. • b) Before beginning the experiment, the name of the drug screened for the cells marked on the 100 mm petri dish was confirmed as well as information such as the passage time and number of passages to ensure the experiment was error-free. • c) Refer to steps d) through i) for procedures for adherent cells; refer to steps j) through l) for procedures for suspension cells. • d) When using aseptic technique, a vacuum pump was used to draw the cell culture medium. • e) 2 ml of a sterile PBS solution was used to rinse the cell surface, and a vacuum pump was used to aspirate the PBS waste. • f) A 1 ml 0.25% (w/v) Trypsin-0.038% (w/v) EDTA solution was gently added to the petri dish for cell digestion, and after gently mixing several times, the solution covered the cell surfaces. […]

[2] = tested on: SNU-475 human hepatoma cells; test: CellTiter-Glo luminescent cell viability assay, SNU-475 human hepatoma cells; details: 72 hours
U2OS osteosarcoma cells = test: CellTiter-Glo luminescent cell viability assay, U2OS osteosarcoma cells; details: Homo sapiens, 72 hours
Experimental: as §1

[3] = tested on: SKOV-3 ovarian cancer cells; test: CellTiter-Glo luminescent cell viability assay, SKOV-3 ovarian cancer cells; details: Homo sapiens, 72 hours
Experimental: as §1

[4] = tested on: NCI-H82 small-cell lung cancer cells; test: CellTiter-Glo luminescent cell viability assay, NCI-H82 small-cell lung cancer cells; details: Homo sapiens, 72 hours
Experimental: as §1

pIC50 [1]: ≤ 4.00
pIC50 [2]: ≤ 4.00
pIC50 (U2OS osteosarcoma cells): 4.49
pEC50 (U2OS osteosarcoma cells; read-out: EC50 (estradiol sensitivity to osteosarcoma, FIG. 4)): 4.54
pIC50 ([3]; SK-OV-3, SKOV-3 ovarian cancer cells): 5.51
pEC50 ([3]; SK-OV-3, ovarian cancer cells, read-out: EC50 (estradiol sensitivity to ovarian cancer, FIG. 2)): 5.52
pIC50 [4]: 4.79
pEC50 ([4]; read-out: EC50 (estradiol sensitivity to small-cell lung cancer, FIG. 3)): 4.82
SMILES: C[C@]12CC[C@@H]3c4ccc(O)cc4CC[C@H]3[C@@H]1CC[C@@H]2O [estradiol]
